Measured values as given in patent US20130123355A1, “Fatty acids and metal ions compositions and uses thereof” (priority 2011, published 2013).

Key:
[1] = system: Patients presenting symptoms of depression; test: Hamilton Depression Rating scale and Beck Depression Inventory in depression; format: in vivo, human; details: with standard of care
Experimental: Patients presenting symptoms of depression, in addition to being provided standard of care for depression, are prescribed Mg-DHA or Mg Citrate capsules formulated to provide 150 mg of elemental magnesium, or DHA capsules for two weeks when recovery from depression is assessed.
Patients presenting symptoms of depression, in addition to being provided standard of care for depression, are prescribed Mg-DHA-LysoPC or Mg Citrate capsules formulated to provide 150 mg of elemental magnesium, or DHA-LysoPC capsules for two weeks when recovery from depression is assessed.
Patients presenting symptoms of depression, in addition to being provided standard of care for depression, are prescribed Mg-EPA or Mg Citrate capsules formulated to provide 150 mg of elemental magnesium, or EPA capsules for two weeks when recovery from depression is assessed.
Patients presenting symptoms of depression, in addition to being provided standard of care for depression, are prescribed Zn-DHA or zinc gluconate capsules formulated to provide a daily dosage of 30 mg of elemental zinc, or DHA capsules for two weeks when recovery from depression is assessed.
Patients presenting symptoms of depression, in addition to being provided standard of care for depression, are prescribed Zn-DHA-LysoPC or zinc gluconate capsules formulated to provide a daily dosage of 30 mg of elemental zinc, or DHA-LysoPC capsules for two weeks when recovery from depression is assessed.
Patients presenting symptoms of depression, in addition to being provided standard of care for depression, are prescribed Zn-EPA or zinc gluconate capsules that provide a daily dosage of 30 mg of elemental Zn, or EPA capsules for two weeks when recovery from depression is assessed.

human subjects = test: Montreal Cognitive Assessment and Mini-Mental State Examination; format: in vivo
Experimental: Mg-DHA composition is prepared and formulated as capsules to provide a daily dose of 150 mg of elemental magnesium. The human subjects are divided into control and test groups and provided DHA, Mg Citrate (equivalent to 150 mg of elemental magnesium) or Mg-DHA capsules for 30 consecutive days. On day 1 and day 30, two cognitive tests, Montreal Cognitive Assessment and Mini-Mental State Examination (Int J Geriatr Psychiatry. 2010 February; 25(2):111-20) are administered.
Mg-DHA-LysoPC composition is prepared and formulated as capsules to provide a daily dose of 150 mg of elemental magnesium. The human subjects are divided into control and test groups and provided either DHA-LysoPC, Mg Citrate (equivalent to 150 mg of elemental magnesium), Mg-DHA-LysoPC capsules for 30 consecutive days. On day 1 and day 30, two cognitive tests, Montreal Cognitive Assessment and Mini-Mental State Examination (Int J Geriatr Psychiatry. 2010 February; 25(2):111-20) are administered.
Mg-EPA composition is prepared and formulated as capsules to provide a daily dose of 150 mg of elemental magnesium. The human subjects are divided into control and test groups and provided EPA, Mg Citrate (equivalent to 150 mg elemental magnesium), or Mg-EPA capsules for 30 consecutive days. On day 1 and day 30, two cognitive tests, Montreal Cognitive Assessment and Mini-Mental State Examination (Int J Geriatr Psychiatry. 2010 February; 25(2):111-20) are administered.
Zn-DHA or zinc gluconate composition is prepared and formulated as capsules to provide 30 mg of elemental zinc. The human subjects are divided into control and test groups and provided DHA, zinc gluconate, or Zn-DHA capsules, 3 times a day for 30 consecutive days. On day 1 and day 30, two cognitive tests, Montreal Cognitive Assessment and Mini-Mental State Examination (Int J Geriatr Psychiatry. 2010 February; 25(2):111-20) are administered.
Zn-DHA or zinc gluconate composition is prepared and formulated as capsules to provide 30 mg of elemental zinc. The human subjects are divided into control and test groups and provided DHA-LysoPC, zinc gluconate, or Zn-DHA-LysoPC capsules, 3 times a day for 30 consecutive days. On day 1 and day 30, two cognitive tests, Montreal Cognitive Assessment and Mini-Mental State Examination (Int J Geriatr Psychiatry. 2010 February; 25(2):111-20) are administered.
Zn-DHA or zinc gluconate composition is prepared and formulated as capsules to provide a daily dosage of 30 mg of elemental zinc. The human subjects are divided into control and test groups and provided EPA, zinc gluconate, or Zn-EPA capsules for 30 consecutive days. On day 1 and day 30, two cognitive tests, Montreal Cognitive Assessment and Mini-Mental State Examination (Int J Geriatr Psychiatry. 2010 February; 25(2):111-20) are administered.

[2] = system: Patients presenting early symptoms of stroke; test: Stroke Rehabilitation Assessment of Movement (STREAM); format: in vivo, human; details: with standard of care
Experimental: Patients presenting early symptoms of stroke, in addition to being provided standard of care for stroke, are prescribed Mg-DHA or Mg Citrate capsules formulated to provide a daily dose of 150 mg of elemental magnesium or DHA capsules for two weeks when recovery from stroke is assessed.
Patients presenting early symptoms of stroke, in addition to being provided standard of care for stroke, are prescribed Mg-DHA-LysoPC or Mg Citrate capsules prepared and formulated to provide 150 mg of elemental magnesium, or DHA-LysoPC capsules for two weeks when recovery is assessed.
Patients presenting early symptoms of stroke, in addition to being provided standard of care for stroke, are prescribed Mg-EPA or Mg Citrate capsules formulated to provide 150 mg of elemental magnesium, or EPA capsules for two weeks when recovery from stroke is assessed.
Patients presenting early symptoms of stroke, in addition to being provided standard of care for stroke, are prescribed either Zn-DHA or zinc gluconate capsules formulated to provide a daily dosage of 30 mg of elemental Zn, or DHA capsules for two weeks when recovery from stroke is assessed.
Patients presenting early symptoms of stroke, in addition to being provided standard of care for stroke, are prescribed either Zn-DHA-LysoPC or zinc gluconate capsules that provide a daily dosage of 30 mg of elemental Zn, or DHA-LysoPC capsules for two weeks when recovery is assessed.
Patients presenting early symptoms of stroke, in addition to being provided standard of care for stroke, are prescribed either Zn-EPA or zinc gluconate capsules formulated to provide a daily dosage of 30 mg of elemental Zn, or EPA capsules for two weeks when recovery from stroke is assessed.

[3] = 150 mg elemental magnesium for two weeks
[4] = capsules, 150 mg elemental magnesium daily for 30 days, compared with the fatty acid alone or Mg Citrate
[5] = 150 mg elemental magnesium daily for two weeks
[6] = 30 mg elemental zinc daily for two weeks, compared with the fatty acid alone or zinc gluconate
[7] = capsules providing 30 mg elemental zinc, 30 consecutive days, compared with the fatty acid alone or zinc gluconate
[8] = 30 mg elemental Zn daily for two weeks, compared with the fatty acid alone or zinc gluconate

CC/C=C\C/C=C\C/C=C\C/C=C\C/C=C\C/C=C\CCC(=O)[O-].CC/C=C\C/C=C\C/C=C\C/C=C\C/C=C\C/C=C\CCC(=O)[O-].[Mg+2] [Mg-DHA]
statistically significant improvement: Hamilton Depression Rating scale and Beck Depression Inventory scores [1, 3] | cognitive tests (Montreal Cognitive Assessment, Mini-Mental State Examination) (human subjects; [4]) | STREAM scores, recovery from stroke [2, 5]

CC/C=C\C/C=C\C/C=C\C/C=C\C/C=C\CCCC(=O)[O-].CC/C=C\C/C=C\C/C=C\C/C=C\C/C=C\CCCC(=O)[O-].[Mg+2] [Mg-EPA]
statistically significant improvement: Hamilton Depression Rating scale and Beck Depression Inventory scores [1, 3] | cognitive tests (Montreal Cognitive Assessment, Mini-Mental State Examination) (human subjects; [4]) | STREAM scores, recovery from stroke [2, 5]

CC/C=C\C/C=C\C/C=C\C/C=C\C/C=C\C/C=C\CCC(=O)[O-].CC/C=C\C/C=C\C/C=C\C/C=C\C/C=C\C/C=C\CCC(=O)[O-].[Zn+2] [Zn-DHA]
statistically significant improvement: Hamilton Depression Rating scale and Beck Depression Inventory scores [1, 6] | cognitive tests (Montreal Cognitive Assessment, Mini-Mental State Examination) (human subjects; [7]) | STREAM scores, recovery from stroke [2, 8]

CC/C=C\C/C=C\C/C=C\C/C=C\C/C=C\CCCC(=O)[O-].CC/C=C\C/C=C\C/C=C\C/C=C\C/C=C\CCCC(=O)[O-].[Zn+2] [Zn-EPA]
statistically significant improvement: Hamilton Depression Rating scale and Beck Depression Inventory scores [1, 6] | cognitive tests (Montreal Cognitive Assessment, Mini-Mental State Examination) (human subjects; [7]) | STREAM scores, recovery from stroke [2, 8]
